1 compound from PMC9057582, “HIF inhibitor 32-134D eradicates murine hepatocellular carcinoma in combination with anti-PD1 therapy” (The Journal of Clinical Investigation, 2022) can be followed below.

One data set relates to Hep3B tumor xenograft. The data set can be described thus: Hep3B tumor xenograft growth in nude mice. It counts as in vivo, nude (nu/nu) mice. As for the experimental part:
Hep3B cells were injected subcutaneously into nude (nu/nu) mice and when tumors reached a volume of 150 mm^3 (designated day 1), the mice were treated with vehicle or 32-134D by daily intraperitoneal injection. […] Treatment with 32-134D for 17 days had no effect on mouse appearance, behavior, or body weight (Supplemental Figure 4B). We treated additional mice with 32-134D at a dose of 40 mg/kg versus vehicle and confirmed inhibition of tumor growth without effects on body weight (Supplemental Figure 5, A–C).
Figure 2 Effect of 32-134D on Hep3B tumor xenograft growth and vascularization. (A) Female nude mice received a subcutaneous injection of […] Hep3B cells. When tumors reached a volume of 150 mm^3 (designated treatment day 1), the mice were randomized to receive a daily intraperitoneal injection of 32-134D at a dose of 0 (blue), 20 (black), 40 (red), or 80 (green) mg/kg. Data are presented as mean tumor volume (± SEM; n = 4 each). **P < 0.01, ***P < 0.001 (ANOVA with Bonferroni’s post hoc test). (B) Gross pathology of tumors harvested from vehicle-treated (top panel) and 32-134D–treated (bottom panel) mice. (C) Nuclear extracts prepared from tumors were assayed by immunoblotting using antibodies against the indicated proteins. (D) Total RNA was isolated from tumor tissue and analyzed by RT-qPCR using primers specific for the indicated mRNAs and results (mean ± SEM, n = 4) were normalized to the mean value for tumors from vehicle-treated mice. (E) ELISA for the indicated proteins was performed using aliquots of tumor lysates (mean ± SEM; n = 3–4 tumors each). *P < 0.05 (Mann-Whitney test). (F) Formalin-fixed and paraffin-embedded tumor sections were analyzed by immunohistochemistry using an antibody against CD31 to identify vascular endothelial cells. Scale bar: 100 μm. The total CD31^+ vessel area per field was quantified using ImageJ (mean ± SEM; n = 4 tumors with 5 sections per tumor). *P < 0.05 (Student’s t test).
Female nude mice (NCI Athymic NCr-nu/nu) and male C57L mice were purchased from Charles River and The Jackson Laboratory, respectively. Hep3B (8 × 10^6) and Hepa1-6 (1 × 10^7) cells were resuspended in PBS and Matrigel (1:1, vol/vol) and implanted subcutaneously in 6- to 8-week-old mice, and tumor volume was calculated as V = abc × 0.52. For Hep3B tumor studies, once tumors reached 100 to 150 mm^3, mice were randomized into groups to receive daily intraperitoneal injection of either 32-134D or vehicle only (20% PEG-400, 10% Cremophor EL, 10% ethanol in PBS). For Hepa1-6 tumors, mice were randomized to receive treatment once tumors became palpable (tumor eradication experiment) or reached a volume of 200 mm^3 (harvesting of tumors for flow cytometry and analysis of RNA and protein expression). Tumors were harvested 4 hours after the last treatment (see Supplemental Table 6 for reagent sources).
Supplemental Figure 4. […]
Female nude mice received a subcutaneous injection of 8 x 10^6 Hep3B cells. […] (A) Tumor volumes were determined every other day. […] (B) Body weights of tumor-bearing mice were measured every other data and are presented as mean + SEM (n = 3-4 per group). […]
Supplemental Figure 5. […] (A-D) Tumor bearing mice were treated with daily intraperitoneal injection of vehicle (black) or 32-134D (red; 40 mg/kg) and individual (A) and mean (B) tumor volumes as well as body weight (C) were determined every other day and mean tumor weights (D) were determined on day 17 (mean + SEM, n =4). *P < 0.05 by ANOVA. […]

In a further data set the test system is Hepa1-6 HCC tumors. Nature of the data set: Hepa1-6 tumor growth and eradication in syngeneic C57L mice. It counts as in vivo. Here is the method: To test whether 32-134D inhibits HCC growth in an immunocompetent mouse model, we injected Hepa1-6 HCC cells into the flank of syngeneic C57L mice ([54]). When tumors became palpable (treatment day 1), mice received intraperitoneal injections of 32-134D (40 mg/kg/day) versus vehicle control, or anti-PD1 antibody versus IgG2a isotype control (200 μg on days 1, 4, 7, 10, 13, and 16), or both 32-134D and anti-PD1. Tumors grew very rapidly in all mice treated with vehicle or IgG2a, necessitating euthanasia on or before day 24 (Figure 4, A and C). Tumors regressed in 5 out of 12 mice treated with anti-PD1, but 2 tumors recurred after the last antibody treatment (on day 16) for a tumor eradication rate of only 25% (Figure 4D). […] Thus, addition of 32-134D increased the percentage of mice with a complete response to anti-PD1 immune checkpoint blockade from 25% to 67% (Figure 4F).
Figure 4 Effect of anti-PD1 and 32-134D on Hepa1-6 tumor growth in syngeneic mice. […]
Female nude mice (NCI Athymic NCr-nu/nu) and male C57L mice were purchased from Charles River and The Jackson Laboratory, respectively. Hep3B (8 × 10^6) and Hepa1-6 (1 × 10^7) cells were resuspended in PBS and Matrigel (1:1, vol/vol) and implanted subcutaneously in 6- to 8-week-old mice, and tumor volume was calculated as V = abc × 0.52. […]

`Brc1ccc2c(-c3csc(-c4c[nH]c5c(Br)cccc45)n3)c[nH]c2c1` [Compound 32-134D]: the tumor xenograft growth entry in the data set with Hep3B tumor xenograft (20 mg/kg daily intraperitoneal, P < 0.01 vs vehicle) is on record as “partial growth inhibition”; in the data set on Hep3B tumor xenograft (40 mg/kg daily intraperitoneal, P < 0.001 vs vehicle) it was “maximal growth inhibition”; in the data set with Hep3B tumor xenograft (80 mg/kg daily intraperitoneal, P < 0.001 vs vehicle), “maximal growth inhibition”. In addition, in the data set with Hep3B tumor xenograft (40 mg/kg, day 17, P < 0.05), the “tumor mass at harvest” value was “significantly decreased”. For the same compound, the “mouse appearance, behavior, or body weight” value in the data set on Hep3B tumor xenograft (treatment for 17 days) is on record as “no effect”. Also, the tumor growth entry in the data set with Hepa1-6 HCC tumors (40 mg/kg/day ip) is recorded as “inhibition of tumor growth in all mice”. The “mice with tumor eradication” value in the data set with Hepa1-6 HCC tumors (12 mice per group) is 4 of 12.
